From US20240091210A1, “USE OF 5-[[4-[2-[5-ACETYLPYRIDIN-2-YL]ETHOXY]BENZYL]-1,3-THIAZOLIDINE-2,4-DIONE AND ITS SALTS” (Minoryx Therapeutics S.L., priority 2018, published 2024)

Key:
[1] = Plasma pharmacokinetics in mice after single oral 50 mg/kg M-III; type: in vivo; settings: male C57BL/6 mice
Experimental: (§1) To the plasma pharmacokinetics of 5-[[4-[2-[5-acetylpyridin-2-yl]ethoxy]phenyl]methyl]-1,3-thiazolidine-2,4-dione (M-III) and 5-[[4-[2-[5-(1-hydroxyethyl)pyridin-2-yl]ethoxy]phenyl]methyl]-1,3-thiazolidine-2,4-dione (M-IV) were determined in male C57BL/6 mice following a single oral (50 mg/kg) dose administration of M-III.
Nine animals were administered orally with suspension formulation of M-III in 0.1% Tween 80 and 99.9% NaCMC in water (0.5% w/v) at 50 mg/kg dose. The dosing volume administered was 10 mL/kg. The blood samples were collected from set of three mice at each time point in labeled micro centrifuge tube containing K2EDTA solution as anticoagulant at Pre-dose, 0.25, 0.5, 1, 2, 4, 8, 12 and 24 hr. Plasma samples were separated by centrifugation of whole blood and stored below −70±10° C. until bioanalysis. All samples were processed for analysis by protein precipitation using acetonitrile and analyzed with fit-for-purpose LC-MS/MS method (LLOQ=2.46 ng/mL for M-III and 2.49 ng/mL for M-IV). Pharmacokinetic parameters were calculated using the non-compartmental analysis tool of Phoenix WinNonlin® (Version 6.3).

[2] = Plasma pharmacokinetics in dogs after single oral 3 mg/kg M3 or MIN-102; type: in vivo, male Beagle dogs
Experimental: (§2) The plasma pharmacokinetics of 5-[[4-[2-[5-acetylpyridin-2-yl]ethoxy]phenyl]methyl]-1,3-thiazolidine-2,4-dione (M-III; M3) and 5-[[4-[2-[5-(1-hydroxyethyl)pyridin-2-yl]ethoxy]phenyl]methyl]-1,3-thiazolidine-2,4-dione (M-IV; M4) were determined in male Beagle dogs following a single oral (3 mg/kg) dose administration of either M3 or MIN-102.
Six animals were dosed orally with a suspension formulation of either M-III or MIN-102 in 0.1% Tween 80 and 99.9% CMC (aqueous carboxymethylcellulose 0.5% w/v solution in RO water) at 3 mg/kg. Blood samples (0.5 ml) were collected from the saphenous or cephalic or jugular veins of dogs at predose, 0.5, 1, 2, 4, 6 and 24 hr. Samples were collected into labeled micro-tubes, containing K2EDTA solution (20% K2EDTA solution) as an anticoagulant. Plasma was immediately harvested from the blood by centrifugation at 4000 rpm for 10 min and stored below −70° C. until bioanalysis.
(§3) Concentrations of M3 and M-IV in dog plasma samples were determined by fit-for-purpose LC-MS/MS method. Non-Compartmental-Analysis module in Phoenix WinNonlin® (Version 6.3) was used to assess the pharmacokinetic parameters. Peak plasma concentrations (Cmax) and time for the peak plasma concentrations (Tmax) were the 59 observed values. The areas under the concentration time curve (AUClast and AUCinf) were calculated by linear trapezoidal rule.

[3] = as described in WO 2015/150476 A1; cited from earlier work
[4] = Plasma pharmacokinetics in rats after single oral 10 mg/kg M-III or MIN-102; type: in vivo, male Sprague Dawley rats
Experimental: as §2, with “male Sprague Dawley” for “male Beagle dogs”, “oral (10” for “oral (3”, “either M-III” for “either M3”
Six animals were dosed orally with a suspension formulation of either M-III or MIN-102 in 0.1% Tween 80 and 99.9% CMC (0.5% w/v solution in RO water) at 10 mg/kg.
The dosing volume administered was 10 mL/kg. Blood samples (approximately 60 μL) were collected from retro-orbital plexus of three rats at 0.08, 0.25, 0.5, 1, 2, 4, 8, 12 and 24 hr (IV) and at predose, 0.25, 0.5, 1, 2, 4, 8, 12 and 24 hr. Samples were collected into labeled micro-tubes, containing K2EDTA solution (20% K2EDTA solution) as an anticoagulant. Plasma was immediately harvested from the blood by centrifugation at 4000 rpm for 10 min at 4±2° C. and stored below −70° C. until bioanalysis.
as §3, with “M-III” for “M3”, “rat” for “dog”, “(Cax)” for “(Cmax)”, “the” for “the 59”

[5] = Plasma pharmacokinetics in mice after single oral 4.5 mg/kg M-III or MIN-102; type: in vivo, male C57BL/6 mice
Experimental: as §1, with “The” for “To the”, “(4.5” for “(50”, “dose” for “dose administration”, “either M-III or MIN-102 (5-[[4-[2-[5-(1-hydroxyethyl)pyridin-2-yl]ethoxy]phenyl]methyl]-1,3-thiazolidine-2,4-dione hydrochloride).” for “M-III.”
Animals were administered orally with a suspension formulation of either M-III or MIN-102 in 0.1% Tween 80 and 99.9% NaCMC in water (0.5% w/v) at 4.5 mg/kg dose. The blood samples were collected from a set of three mice at each time point in labeled micro centrifuge tubes containing K2EDTA solution as anticoagulant at Pre-dose, 0.25, 0.5, 1, 2, 4, 8, 12 and 24 hr. Plasma samples were separated by centrifugation of whole blood and stored below −70±10° C. until bioanalysis. All samples were processed for analysis by protein precipitation using acetonitrile and analyzed with fit-for-purpose LC-MS/MS method (LLOQ=2.46 ng/mL for M-III and 2.49 ng/mL for M-IV). Pharmacokinetic parameters were calculated using the non-compartmental analysis tool of Phoenix WinNonlin® (Version 6.3).

[6] = biological target: mitochondrial pyruvate carrier (MPC) (Homo sapiens (Human), UniProt O95563+Q9Y5U8); experiment: BRET assay of MPC inhibitory activity in HEK cells; type: cell-based; settings: HEK cells expressing MPC2-Rluc8 and MPC1-Venus; read-out: IC50 (MPC inhibition, BRET)
Experimental: The MPC is a heterodimer composed of two subunits, MPC1 and MPC2. MPC1 and MPC2 interact to form an active carrier. In the assay, MPC2 was fused to Rluc8 (Donor) and MPC1 to Venus (Acceptor). These chimeric proteins were stably expressed in HEK cells. BRET activity was measured following addition of coelenterazine in the culture medium. Coelenterazine enters into cells and in contact with luciferase Rluc8 emits light, which activates the emission of fluorescence by the Acceptor, provided the distance between the Donor and Acceptor is <[…]. If the distance between Donor and Acceptor is >[…], no BRET activity is measured. The level of BRET activity reflects a change in the conformation of the MPC: it is high when the carrier is in a closed conformation, low when the carrier is at rest and intermediary when it transports pyruvate. In this case, the BRET activity is the mean value between the BRET value when the carrier is at rest (Maximal distance between Donor and Acceptor) and the BRET value when it is closed (Shortest distance between Donor and Acceptor)
A wide range of concentrations of each of the tested compounds was used from 1 nM to 100 μM.

Chain of mitochondrial pyruvate carrier (MPC) (Q9Y5U8 whole entry, the tested form may be a part): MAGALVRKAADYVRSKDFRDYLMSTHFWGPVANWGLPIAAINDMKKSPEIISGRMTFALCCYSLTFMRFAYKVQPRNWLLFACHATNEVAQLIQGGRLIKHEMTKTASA
Chain of mitochondrial pyruvate carrier (MPC) (O95563 whole entry, the tested form may be a part): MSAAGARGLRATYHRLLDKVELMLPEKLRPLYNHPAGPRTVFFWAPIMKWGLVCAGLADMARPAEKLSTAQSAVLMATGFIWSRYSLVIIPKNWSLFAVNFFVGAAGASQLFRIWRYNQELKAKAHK

Row | SMILES | share of total exposure (AUC) [1] | share of total exposure (AUC) ([2]; after single oral 3 mg/kg M3, male dogs) | share of total exposure (AUC) ([2]; after single oral 3 mg/kg MIN-102, male dogs) | blood-brain-barrier penetration [3] | share of total exposure (AUC) ([4]; after single oral 10 mg/kg M-III, male rats) | share of total exposure (AUC) ([4]; after single oral 10 mg/kg MIN-102, male rats) | share of total exposure (AUC) ([5]; after single oral 4.5 mg/kg M-III, male mice) | share of total exposure (AUC) ([5]; after single oral 4.5 mg/kg MIN-102, male mice) | IC50 [6]
1 | CC(O)c1ccc(CCOc2ccc(CC3SC(=O)NC3=O)cc2)nc1 (stereo not shown) [M-IV, 5-[[4-[2-[5-(1-hydroxyethyl)pyridin-2-yl]ethoxy]phenyl]methyl]-1,3-thiazolidine-2,4-dione] | about 75% | ~84% | about 92% | penetrates the BBB | ~48% | about 58% | ~75% | about 62% | –
2 | CCc1ccc(CCOc2ccc(CC3SC(=O)NC3=O)cc2)nc1 (stereo not shown) [Pioglitazone] | – | – | – | – | – | – | – | – | > 100000 nM
3 | CN(CCOc1ccc(C[C@@H]2SC(=O)NC2=O)cc1)c1ccccn1 [Rosiglitazone] | – | – | – | – | – | – | – | – | 2000 nM
